Assay results published in ChEMBL document CHEMBL4024722, “Discovery of acylguanidine oseltamivir carboxylate derivatives as potent neuraminidase inhibitors” (Bioorg Med Chem, 2017).

Key:
[1] = Inhibition of Influenza A virus (A/Puerto Rico/8/1934(H1N1)) neuraminidase using 4-MU-NANA as substrate preincubated for 10 mins followed by substrate addition measured after 1 hr by fluorescence assay
[2] = Inhibition of Influenza A virus (A/Hong Kong/498/97(H3N2)) neuraminidase using 4-MU-NANA as substrate preincubated for 10 mins followed by substrate addition measured after 1 hr by fluorescence assay
[3] = Cytotoxicity against MDCK cells after 72 hrs by Alamar-Blue assay; format: cell-based, Canis lupus familiaris; settings: dog

| Compound | IC50 [1] [nM] | IC50 [2] [nM] | CC50 at 72 h [3] [nM] |
| --- | --- | --- | --- |
| CCC(CC)O[C@@H]1C=C(C(=O)O)C[C@H](NC(=N)NC(=O)Cc2ccccc2C)[C@H]1NC(C)=O | 86.5 | 22.8 | – |
| CCC(CC)O[C@@H]1C=C(C(=O)O)C[C@H](NC(=N)NC(=O)c2ccc(OC)cc2)[C@H]1NC(C)=O | 68.6 | 215 | – |
| CCC(CC)O[C@@H]1C=C(C(=O)O)C[C@H](NC(=N)NC(=O)c2ccccc2Br)[C@H]1NC(C)=O | > 1000 | > 1000 | – |
| CCC(CC)O[C@@H]1C=C(C(=O)O)C[C@H](NC(=N)NC(=O)CCc2ccccc2)[C@H]1NC(C)=O | 30.1 | 9.4 | – |
| CCC(CC)O[C@@H]1C=C(C(=O)O)C[C@H](NC(=N)NC(=O)c2ccccc2C)[C@H]1NC(C)=O | > 1000 | > 1000 | – |
| CCC(CC)O[C@@H]1C=C(C(=O)O)C[C@H](NC(=N)NC(=O)c2ccccc2)[C@H]1NC(C)=O | 574 | 334 | – |
| CCCCC(=O)NC(=N)N[C@H]1CC(C(=O)O)=C[C@@H](OC(CC)CC)[C@@H]1NC(C)=O | 37 | 6 | – |
| CCC(CC)O[C@@H]1C=C(C(=O)O)C[C@H](NC(=N)NC(=O)Cc2ccc(C)cc2)[C@H]1NC(C)=O | 29.4 | 9.5 | – |
| CCC(CC)O[C@@H]1C=C(C(=O)O)C[C@H](NC(=N)NC(=O)Cc2ccc(Br)cc2)[C@H]1NC(C)=O | 14.5 | 8 | > 1000 |
| CCC(CC)O[C@@H]1C=C(C(=O)O)C[C@H](NC(=N)NC(=O)Cc2ccc3ccccc3c2)[C@H]1NC(C)=O | 21.1 | 7.2 | > 1000 |
| CCC(CC)O[C@@H]1C=C(C(=O)O)C[C@H](NC(=N)NC(=O)c2ccncc2)[C@H]1NC(C)=O | 15.2 | 16.1 | – |
| CCC(CC)O[C@@H]1C=C(C(=O)O)C[C@H](NC(=N)NC(=O)CCc2cccnc2)[C@H]1NC(C)=O | 10.2 | 14.6 | – |
| CCCC(=O)NC(=N)N[C@H]1CC(C(=O)O)=C[C@@H](OC(CC)CC)[C@@H]1NC(C)=O | 34.8 | 11.2 | – |
| CCC(CC)O[C@@H]1C=C(C(=O)O)C[C@H](NC(=N)NC(=O)CC(C)C)[C@H]1NC(C)=O | 88.3 | 18.4 | – |
| CCC(=O)NC(=N)N[C@H]1CC(C(=O)O)=C[C@@H](OC(CC)CC)[C@@H]1NC(C)=O | 39.1 | 11.4 | > 1000 |
| CCC(CC)O[C@@H]1C=C(C(=O)O)C[C@H](NC(=N)NC(=O)c2ccccc2OC)[C@H]1NC(C)=O | 53.5 | 125 | – |
| CCC(CC)O[C@@H]1C=C(C(=O)O)C[C@H](NC(=N)NC(=O)C(C)C)[C@H]1NC(C)=O | 38.2 | 13.7 | – |
| CCC(CC)O[C@@H]1C=C(C(=O)O)C[C@H](NC(=N)NC(=O)c2cccc(C)c2)[C@H]1NC(C)=O | 11.5 | 19.5 | – |
| CCC(CC)O[C@@H]1C=C(C(=O)O)C[C@H](NC(=N)NC(=O)c2cc(C)cc(C)c2)[C@H]1NC(C)=O | 155 | 159 | – |
| CCC(CC)O[C@@H]1C=C(C(=O)O)C[C@H](NC(=N)NC(=O)CCc2ccc(OC)c(OC)c2)[C@H]1NC(C)=O | 1.43 | 3.64 | > 1000 |
| CCC(CC)O[C@@H]1C=C(C(=O)O)C[C@H](NC(=N)NC(=O)CCCc2ccccc2)[C@H]1NC(C)=O | 64.9 | 21.4 | – |
| CCC(CC)O[C@@H]1C=C(C(=O)O)C[C@H](NC(=N)NC(=O)c2ccccc2O)[C@H]1NC(C)=O | 49.8 | 185 | – |
| C=CCCC(=O)NC(=N)N[C@H]1CC(C(=O)O)=C[C@@H](OC(CC)CC)[C@@H]1NC(C)=O | 8.1 | 5.4 | > 1000 |
| CCC(CC)O[C@@H]1C=C(C(=O)O)C[C@H](NC(=N)NC(=O)c2ccccc2C(F)(F)F)[C@H]1NC(C)=O | > 1000 | 911 | – |
| CCC(CC)O[C@@H]1C=C(C(=O)O)C[C@H](NC(=N)NC(=O)c2cccc(OC)c2)[C@H]1NC(C)=O | 175 | 533 | – |
| CCC(CC)O[C@@H]1C=C(C(=O)O)C[C@H](NC(=N)NC(=O)c2ccc([N+](=O)[O-])cc2)[C@H]1NC(C)=O | 20.1 | 14.2 | > 1000 |
| CCC(CC)O[C@@H]1C=C(C(=O)O)C[C@H](NC(=N)NC(=O)c2cccc(C(F)(F)F)c2)[C@H]1NC(C)=O | 216 | 76.1 | – |
| CCC(CC)O[C@@H]1C=C(C(=O)O)C[C@H](NC(=N)NC(=O)c2ccc(C)cc2)[C@H]1NC(C)=O | > 1000 | > 1000 | – |
